Measured values taken from PMC12735718, “Novel Adamantane–Sclareol Hybrids Exploit ROS Vulnerability to Overcome Multidrug-Resistance in Glioblastoma Cells” (Molecules, 2025).

Assays:
U87-TxR cells [1] = experiment: MTT cell viability assay, U87-TxR; assay type: cell-based, human; conditions: for IC50: Homo sapiens, U87-TxR, 72 h treatment, MTT, MDR cell line; for Relative Resistance Factor: ratio of IC50 values U87-TxR / U87
Protocol: (§1) Cell viability was measured using the colorimetric MTT assay based on the reduction of MTT into formazan dye. Cell lines were seeded into 96-well cell culture plates (4000 cells/well) in appropriate medium. After overnight incubation, cells were treated with increasing concentrations of 1, 2, 3, 4, 5, and 6 (0.5, 1, 2, 4, and 8 µM). After 72 h treatment, MTT solution (4 mg/mL) was added and plates were incubated at 37 °C with 5% CO2 for 3 h. After incubation, formazan crystals were dissolved using 100 µL DMSO, resulting in a purple color. The absorbance was measured at 570 nm with a reference wavelength of 690 nm using an automated microplate reader (MultiskanSky, Thermo Scientific, USA). The IC50 values were determined by non-linear regression analysis in GraphPad Prism 8.0.2. software (GraphPad Software, Boston, MA, USA).

SVG p12 cells = experiment: MTT cell viability assay, SVG p12; assay type: cell-based, human; conditions: for IC50: Homo sapiens, SVGp12, 72 h treatment, MTT, normal glial cell line; for Selectivity Index: IC50 SVG p12 vs average IC50 in A-172, U87 and U87-TxR
Protocol: as §1

A-172 cells = experiment: MTT cell viability assay, A-172; assay type: cell-based; conditions: Homo sapiens, 72 h treatment
Protocol: as §1

U87 cells = experiment: MTT cell viability assay, U87; assay type: cell-based; conditions: Homo sapiens, U-87 MG, 72 h treatment
Protocol: as §1

U87-TxR cells [2] = experiment: Cell death detection, AV/PI staining, U87-TxR; assay type: cell-based, human; conditions: 48 h; for cell death effect in MDR U87-TxR cells vs sensitive U87 cells: 4 µM, AV/PI; for percentage of early apoptotic cells vs untreated: 2 µM and 4 µM, particularly at 4 µM
Protocol: To evaluate the extent of cell death upon treatment with adamantane–sclareol hybrids, apoptotic, necrotic, and viable cell populations were assessed using dual staining with AV/PI. U87 and U87-TxR cells were seeded in 6-well plates at a density of 150,000 cells per well and incubated overnight. Subsequently, cells were treated with 2 and 5 (2 µM and 4 µM) for 48 h. At the end of the treatment period, cells were collected (both adherent and floating), washed, and incubated with AV/PI in binding buffer. Samples were analyzed using a CytoFLEX flow cytometer (Beckman Coulter, Indianapolis, IN, USA), with fluorescence signals detected at 525 nm (AV) and 585 nm (PI). At least 10,000 events were recorded per each condition. The percentages of viable (AV^− PI^−), early apoptotic (AV^+ PI^−), late apoptotic (AV^+ PI^+), and necrotic (AV^− PI^+) cells were calculated using CytExpert 2.4.0.28 software (Beckman Coulter, Indianapolis, IN, USA).

[3] = system: TrxR (SH-SY5Y cell lysate); experiment: Colorimetric detection of cell lysate TrxR activity (DTNB); assay type: biochemical, human; conditions: positive control, 20 µM, DTNB absorbance over 20 min
Text: We further analyzed the potential of adamantane–sclareol hybrids to inhibit TrxR enzyme activity using a colorimetric assay for the detection of TrxR activity in cell lysates. This kinetic assay is based on the ability of TrxR to reduce its substrate 5,5ʹ-dithiobis(2-nitrobenzoic acid) (DTNB) to the yellow product 5-thio-2-nitrobenzoic acid (TNB) in the presence of NADPH. The absorbance of the produced TNB is considered equivalent to the enzymic activity of TrxR. In the kinetic assay, the absorbance of DTNB was measured over 20 min, resulting in a curve showing the dependence of absorbance on time.
TrxR enzyme activity in cell lysate was determined by the reduction of the TrxR substrate DTNB to the yellow product TNB in the presence of NADPH (Acros Organics, Thermo Fisher Scientific, Waltham, MA, USA). Lysate from human neuroblastoma SH-SY5Y cells was used for the TrxR assay. SH-SY5Y cells were grown to 80% confluence, washed twice with PBS, and detached using Hanks-based enzyme-free dissociation solution (Millipore, Billeri-ca, MA, USA). Collected cells were centrifuged at 2000 rpm for 3 min and rinsed in PBS buffer. After additional centrifugation, cells were lysed on ice using Lysis Buffer (50 mM Tris, 150 mM NaCl, 1 mM EDTA, 1% NP40, 0.1% SDS, 0.5% Na-deoxycholate, pH 7.8) containing protease inhibitor mix G (SERVA Electrophoresis GmbH, Heidelberg, Germany) and phosphatase inhibitor cocktail 3 (Sigma-Aldrich, Darmstadt, Germany). The cell lysates were centrifuged at 16,000× g for 15 min at 4 °C. The protein concentrations of the supernatants were determined using a Pierce^TM BCA protein assay kit (Thermo Fisher Scientific, Waltham, MA, USA). The reactions were run in 96-well plates, in a final volume of 100 μL, in 50 mM potassium phosphate buffer (pH 7.0) containing 50 μg of cell lysate proteins, 1 mM EDTA, 50 mM KCl, 0.2 mg/mL BSA, and 0.25 mM NADPH. […] Enzyme kinetics were monitored on an automated microplate reader (MultiskanSky, Thermo Fisher Scientific, Waltham, MA, USA) by measuring the increase in absorbance at 412 nm for 20 min. […]

[4] = system: H2O2 and peroxynitrite anion levels in U87-TxR cells; experiment: ROS detection by DHR, U87-TxR; assay type: cell-based, human; conditions: 10 µM
Protocol: The levels of ROS were measured in U87 and U87-TxR cells by flow cytometry. The production of superoxide anions was detected using DHE fluorescence dye, while production of H2O2 and peroxynitrite anions was detected using DHR fluorescence dye. Cells were seeded in 6-well plates (150,000 cell/well) and incubated overnight. The cells were then treated with compounds 2 or 5 (4 μM) for 24 h and 48 h. CDDP (10 μM) was used as a positive control. After the treatment period, the cells were stained with DHE or DHR for 30 min in the dark. Following incubation, cells were harvested with trypsinization and washed twice in cold phosphate buffer solution (PBS). Fluorescence was measured on a CytoFlex flow cytometer (Beckman Coulter, Indianapolis, IN, USA). Green fluorescence from the oxidized DHR dye was detected at 525 nm, while the red fluorescence from ethidium derived from DHE was detected at 585 nm. At least 10,000 events were assayed for each sample. The results were analyzed by CytExpert 2.4.0.28 software (Beckman Coulter, Indianapolis, IN, USA).

[5] = system: mitochondrial membrane potential in U87 and U87-TxR cells; experiment: TMRE mitochondrial membrane potential; assay type: cell-based, human; conditions: 10 µM, added 30 min before staining
Protocol: The cell-permeable fluorescent dye TMRE was used to evaluate mitochondrial membrane potential. TMRE selectively accumulates in active mitochondria with intact membrane potential. […] U87 and U87-TxR cells were seeded in 6-well plates at a density of 150,000 cells per well. After 24 h, cells were treated with 2 and 5 (4 µM) and incubated for an additional 24 h. After treatment, cells were trypsinized, resuspended in complete medium containing 500 nM TMRE, and incubated for 30 min at 37 °C in the dark. CCCP (10 µM) was used as a positive control for mitochondrial depolarization and added 30 min before staining. For each sample, at least 10,000 events were collected. TMRE was detected at […]. The results were calculated using CytExpert 2.4.0.28 software (Beckman Coulter, Indianapolis, IN, USA).

U87-TxR cells [6] = experiment: Combination with PTX, MTT assay; assay type: cell-based, human; conditions: Homo sapiens, U87-TxR; PTX alone, 72 h
Protocol: as §1
The combined effects of 2 and 5 with PTX were studied in U87-TxR cells by MTT assay as previously described. In simultaneous treatments that lasted 72 h, three concentrations of 2 and 5 (0.5, 1, and 2 µM) were combined with three concentrations of PTX (0.1 μM, 0.2 μM, and 0.5 μM). Drug combination effects were evaluated using the Chou–Talalay method, which calculates the combination index (CI) value for the degree of interaction between the drugs. This method allows quantitative assessment of synergism (CI < 1), additivity (CI close to 1), or antagonism (CI > 1) across a range of dose–effect relationships. Calcusyn® version 1.1 software was used for data analysis (Biosoft, Cambridge UK). Three data points were used for each single drug in each designed experiment. The non-constant ratio combination was chosen to assess the effect of both drugs in combination. The results are presented in a fraction-affected CI graph.

Row | Compound | IC50 (U87-TxR cells [1]) | IC50 (SVG p12 cells) | Selectivity Index (SVG p12 cells) | IC50 (A-172 cells) | IC50 (U87 cells) | Relative Resistance Factor (U87-TxR cells [1]) | cell death effect in MDR U87-TxR cells vs sensitive U87 cells (U87-TxR cells [2]) | further results
1 | CC1(C)CCC[C@]2(C)[C@@H](CC[C@@](C)(O)/C=C/c3ccc(CNCCCCCCNCCC45CC6CC(CC(C6)C4)C5)o3)[C@](C)(O)CC[C@@H]12 [Compound 6] | 1910 ± 46 nM | 1160 ± 27 nM | 0.547 | 2000 ± 26 nM | 2470 ± 66 nM |  |  | 
2 | CC1(C)CCC[C@]2(C)[C@@H](CC[C@@](C)(O)/C=C/c3ccc(CNCCCCCCNCCC45CC6CC(CC(C6)C4)C5)s3)[C@](C)(O)CC[C@@H]12 [Compound 3] | 2310 ± 52 nM | 9290 ± 169 nM | 3.541 ^S | 3360 ± 57 nM | 2200 ± 52 nM | 1.049 | significantly better effects in MDR U87-TxR cells | percentage of early apoptotic cells vs untreated (U87-TxR cells [2]): significant increase
3 | O=C(O)CC([S-])C(=O)O.[Au+] (stereo not drawn) [ATM, aurothiomalate, reference compound] |  |  |  |  |  |  |  | TrxR enzyme activity [3]: inhibited TrxR activity
4 | [NH2][Pt]([NH2])([Cl])[Cl] [CDDP, Cisplatin, reference compound] |  |  |  |  |  |  |  | positive control effect on ROS, U87-TxR vs U87 [4]: more potent effects in MDR U87-TxR cells
5 | Carbonyl cyanide m-chlorophenyl hydrazine [CCCP, reference compound] |  |  |  |  |  |  |  | positive control effect on mitochondrial membrane potential, U87-TxR vs U87 [5]: more potent effects in MDR U87-TxR cells
6 | CC1(C)CCC[C@]2(C)[C@@H](CC[C@@](C)(O)/C=C/c3ccc(CNCCCCCCNCC45CC6CC(CC(C6)C4)C5)s3)[C@](C)(O)CC[C@@H]12 [Compound 1] | 2080 ± 37 nM | 5330 ± 132 nM | 2.300 ^S | 2470 ± 36 nM | 2400 ± 61 nM | 0.869 | significantly better effects in MDR U87-TxR cells | 
7 | CC1(C)CCC[C@]2(C)[C@@H](CC[C@@](C)(O)/C=C/c3ccc(CNCCCCCCNCC45CC6CC(CC(C6)C4)C5)o3)[C@](C)(O)CC[C@@H]12 [Compound 4] | 1460 ± 27 nM | 918 ± 22 nM | 0.686 | 1380 ± 18 nM | 1250 ± 36 nM | 1.160 | significantly better effects in MDR U87-TxR cells | percentage of early apoptotic cells vs untreated (U87-TxR cells [2]): significant increase; early apoptotic population (AV+ PI−) (U87-TxR cells [2]; untreated cells 4.17%, Figure S3): 26.84%
8 | CC(=O)O[C@H]1C(=O)[C@@]2(C)[C@H]([C@H](OC(=O)c3ccccc3)[C@]3(O)C[C@H](OC(=O)[C@H](O)[C@@H](NC(=O)c4ccccc4)c4ccccc4)C(C)=C1C3(C)C)[C@]1(OC(C)=O)CO[C@@H]1C[C@@H]2O [PTX, paclitaxel, reference compound] |  |  |  |  |  |  |  | IC50 (U87-TxR cells [6]): 688 ± 22 nM
